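Dose response: 5 concentrations. Exposure: 48 h. Format: 96-well plates. Endpoint: linear interpolation; highest concentration if not reached. GI50 is the concentration that inhibits growth by half. TGI is the concentration that stops growth completely.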
How the values were obtained:
Assay in all cases: NCI-60 cell line screen, 48 h
MCF7 breast = tested on: MCF7 breast
OVCAR-5 ovarian = tested on: OVCAR-5 ovarian
COLO 205 colon = tested on: COLO 205 colon
SNB-75 CNS = tested on: SNB-75 CNS
MALME-3M melanoma = tested on: MALME-3M melanoma
SK-MEL-5 melanoma = tested on: SK-MEL-5 melanoma
HOP-92 NSCLC = tested on: HOP-92 NSCLC
HT29 colon = tested on: HT29 colon
LOX IMVI melanoma = tested on: LOX IMVI melanoma
SK-MEL-28 melanoma = tested on: SK-MEL-28 melanoma
SF-268 CNS = tested on: SF-268 CNS
HCC-2998 colon = tested on: HCC-2998 colon
NCI-H226 lung = tested on: NCI-H226 lung
A498 renal = tested on: A498 renal
EKVX NSCLC = tested on: EKVX NSCLC
SN12C renal = tested on: SN12C renal
SW-620 colon = tested on: SW-620 colon
UACC-257 melanoma = tested on: UACC-257 melanoma
MOLT-4 leukemia = tested on: MOLT-4 leukemia
SK-OV-3 ovarian = tested on: SK-OV-3 ovarian
SF-295 CNS = tested on: SF-295 CNS
HCT-15 colon = tested on: HCT-15 colon
NCI-H460 lung = tested on: NCI-H460 lung
NCI-H23 lung = tested on: NCI-H23 lung
NCI-H522 lung = tested on: NCI-H522 lung
HOP-62 NSCLC = tested on: HOP-62 NSCLC
OVCAR-3 ovarian = tested on: OVCAR-3 ovarian
TK-10 renal = tested on: TK-10 renal
CCRF-CEM leukemia = tested on: CCRF-CEM leukemia
A549 NSCLC = tested on: A549 NSCLC
SF-539 CNS = tested on: SF-539 CNS
HCT-116 colon = tested on: HCT-116 colon
HL-60(TB) leukemia = tested on: HL-60(TB) leukemia
786-0 renal = tested on: 786-0 renal
HS 578T breast = tested on: HS 578T breast
PC-3 prostate = tested on: PC-3 prostate
T-47D breast = tested on: T-47D breast
MDA-MB-435 = tested on: MDA-MB-435
RXF 393 renal = tested on: RXF 393 renal
DU-145 prostate = tested on: DU-145 prostate
RPMI-8226 leukemia = tested on: RPMI-8226 leukemia
SR leukemia = tested on: SR leukemia
MDA-MB-231 breast = tested on: MDA-MB-231 breast
IGROV1 ovarian = tested on: IGROV1 ovarian
SK-MEL-2 melanoma = tested on: SK-MEL-2 melanoma
ACHN renal = tested on: ACHN renal
BT-549 breast = tested on: BT-549 breast
UACC-62 melanoma = tested on: UACC-62 melanoma
UO-31 renal = tested on: UO-31 renal
KM12 colon = tested on: KM12 colon
CAKI-1 renal = tested on: CAKI-1 renal
K-562 leukemia = tested on: K-562 leukemia
M14 melanoma = tested on: M14 melanoma
OVCAR-8 ovarian = tested on: OVCAR-8 ovarian
SNB-19 CNS = tested on: SNB-19 CNS

SMILES: CCOC(=O)c1ccc2[nH]c(O)c(C(=Nc3ccc(N(C)C(=O)CN4CCN(C)CC4)cc3)c3ccccc3)c2c1
- GI50 (MCF7 breast): 418 nM
- TGI (MCF7 breast): 1990 nM
- GI50 (OVCAR-5 ovarian): 1350 nM
- TGI (OVCAR-5 ovarian): 3440 nM
- GI50 (COLO 205 colon): 275 nM
- TGI (COLO 205 colon): 1470 nM
- GI50 (SNB-75 CNS): 178 nM
- TGI (SNB-75 CNS): 2060 nM
- GI50 (MALME-3M melanoma): 454 nM
- TGI (MALME-3M melanoma): 1840 nM
- GI50 (SK-MEL-5 melanoma): 426 nM
- TGI (SK-MEL-5 melanoma): 1580 nM
- GI50 (HOP-92 NSCLC): 781 nM
- TGI (HOP-92 NSCLC): 2780 nM
- GI50 (HT29 colon): 185 nM
- TGI (HT29 colon): 8870 nM
- GI50 (LOX IMVI melanoma): 300 nM
- TGI (LOX IMVI melanoma): 1410 nM
- GI50 (SK-MEL-28 melanoma): 1110 nM
- TGI (SK-MEL-28 melanoma): 2480 nM
- GI50 (SF-268 CNS): 413 nM
- TGI (SF-268 CNS): 2030 nM
- GI50 (HCC-2998 colon): 655 nM
- TGI (HCC-2998 colon): 2060 nM
- GI50 (NCI-H226 lung): 596 nM
- TGI (NCI-H226 lung): 2400 nM
- GI50 (A498 renal): 162 nM
- TGI (A498 renal): 1060 nM
- GI50 (EKVX NSCLC): 955 nM
- TGI (EKVX NSCLC): 2740 nM
- GI50 (SN12C renal): 144 nM
- TGI (SN12C renal): 1540 nM
- GI50 (SW-620 colon): 346 nM
- TGI (SW-620 colon): 1620 nM
- GI50 (UACC-257 melanoma): 1380 nM
- TGI (UACC-257 melanoma): 3170 nM
- GI50 (MOLT-4 leukemia): 254 nM
- TGI (MOLT-4 leukemia): 2000 nM
- GI50 (SK-OV-3 ovarian): 206 nM
- TGI (SK-OV-3 ovarian): 1230 nM
- GI50 (SF-295 CNS): 894 nM
- TGI (SF-295 CNS): 2200 nM
- GI50 (HCT-15 colon): 402 nM
- TGI (HCT-15 colon): 1810 nM
- GI50 (NCI-H460 lung): 810 nM
- TGI (NCI-H460 lung): 2450 nM
- GI50 (NCI-H23 lung): 467 nM
- TGI (NCI-H23 lung): 2230 nM
- GI50 (NCI-H522 lung): 1120 nM
- TGI (NCI-H522 lung): 3340 nM
- GI50 (HOP-62 NSCLC): 428 nM
- TGI (HOP-62 NSCLC): 2180 nM
- GI50 (OVCAR-3 ovarian): 774 nM
- TGI (OVCAR-3 ovarian): 2300 nM
- GI50 (TK-10 renal): 540 nM
- TGI (TK-10 renal): 3330 nM
- GI50 (CCRF-CEM leukemia): 416 nM
- TGI (CCRF-CEM leukemia): 8650 nM
- GI50 (A549 NSCLC): 416 nM
- TGI (A549 NSCLC): 2730 nM
- GI50 (SF-539 CNS): 247 nM
- TGI (SF-539 CNS): 979 nM
- GI50 (HCT-116 colon): 172 nM
- TGI (HCT-116 colon): 1260 nM
- GI50 (HL-60(TB) leukemia): 356 nM
- TGI (HL-60(TB) leukemia): 1150 nM
- GI50 (786-0 renal): 213 nM
- TGI (786-0 renal): 1780 nM
- GI50 (HS 578T breast): 64.4 nM
- TGI (HS 578T breast): 1010 nM
- GI50 (PC-3 prostate): 467 nM
- TGI (PC-3 prostate): 2370 nM
- GI50 (T-47D breast): 979 nM
- TGI (T-47D breast): 3310 nM
- GI50 (MDA-MB-435): 667 nM
- TGI (MDA-MB-435): 2000 nM
- GI50 (RXF 393 renal): 189 nM
- TGI (RXF 393 renal): 698 nM
- GI50 (DU-145 prostate): 490 nM
- TGI (DU-145 prostate): 2100 nM
- GI50 (RPMI-8226 leukemia): 598 nM
- TGI (RPMI-8226 leukemia): 3550 nM
- GI50 (SR leukemia): 121 nM
- TGI (SR leukemia): 901 nM
- GI50 (MDA-MB-231 breast): 222 nM
- TGI (MDA-MB-231 breast): 1540 nM
- GI50 (IGROV1 ovarian): 111 nM
- TGI (IGROV1 ovarian): 1240 nM
- GI50 (SK-MEL-2 melanoma): 780 nM
- TGI (SK-MEL-2 melanoma): 2570 nM
- GI50 (ACHN renal): 356 nM
- TGI (ACHN renal): 1530 nM
- GI50 (BT-549 breast): 1040 nM
- TGI (BT-549 breast): 2320 nM
- GI50 (UACC-62 melanoma): 1410 nM
- TGI (UACC-62 melanoma): 3090 nM
- GI50 (UO-31 renal): 323 nM
- TGI (UO-31 renal): 1560 nM
- GI50 (KM12 colon): 17.2 nM
- TGI (KM12 colon): 1510 nM
- GI50 (CAKI-1 renal): 103 nM
- TGI (CAKI-1 renal): 1160 nM
- GI50 (K-562 leukemia): 62.5 nM
- TGI (K-562 leukemia): 2040 nM
- GI50 (M14 melanoma): 339 nM
- TGI (M14 melanoma): 1530 nM
- GI50 (OVCAR-8 ovarian): 514 nM
- TGI (OVCAR-8 ovarian): 2890 nM
- GI50 (SNB-19 CNS): 743 nM
- TGI (SNB-19 CNS): 2100 nM

Source: PubChem BioAssay (NCI)
